Laboratory results: patent US12054744B2, “NK cells exhibiting an adaptive phenotype and methods for preparing and for using” (Regents of the University of Minnesota, priority 2015, dated 2024)

Legend:
Format in all cases: cell-based, human
TIGIT = assay: Flow cytometry of TIGIT and other receptors on NK cells; conditions: cultured overnight; IL-15 10 ng/mL alone, or additional anti-CD16 1 μg/mL
Experimental: FIG. 11A. Purified NK cells from healthy blood donors were cultured before staining in the absence or presence of IL-15 (10 ng/mL) alone or with the additional stimulation of IL-12 (10 ng/mL) and IL-18 (100 ng/mL) for 18 hours or with stimulation with anti-CD16 (1 μg/mL) for 6 hours. One of four independent experiments is shown. NK cells were cultured with autologous MDSCs or freshly isolated monocytes at a 2:1 ratio in presence of IL-15 (10 ng/mL) for 5 days. Cells were stimulated with anti-CD16 six hours prior to analysis. Representative histograms for DNAM-1 (FIG. 11B) and TIGIT expression (FIG. 11C) and aggregate data for TIGIT expression (n=8) are shown as mean fluorescence intensity (MFI)±SEM. Two-Way ANOVA was used for statistical analysis. FIG. 11D. NK cells before and after co-culture with monocytes or MDSC were analyzed for co-expression of DNAM-1 and TIGIT. Representative data is shown of 3 independent experiments and 7 replicates. […]
Purified NK cells or MDS PBMC (FIG. 17) cultured with monocytes or MDSCs for different time points and with different stimuli were resuspended in staining buffer (PBS containing 0.5% human AB serum) and stained with fluorochrome-conjugated antibodies (Table IV). […] All cells were acquired by LSRII and analyzed by FlowJo. […]

[1] = system: PLZF expression in cord blood-derived CD56^dim NK cells; assay: Intracellular PLZF staining of cord blood-derived CD56^dim NK cells after 14 days in culture; conditions: high-dose IL-15, IL-21 where added
Experimental: FIG. 6A. FACS plots of intracellular PLZF expression in cord blood-derived CD56^dim NK cells from a representative donor after 14 days in the indicated culture conditions. FIG. 6B. Cumulative data showing the percentage of PLZF″ NK cells after 14 days in each culture condition from 6 donors. Two independent experiments were performed. Error bars represent SEM.
Mononuclear cells were isolated from whole cord blood by density gradient centrifugation. T cells and B cells were depleted by positive magnetic selection using anti-CD3 and anti-CD19 microbeads, respectively. CD3/CD19-depleted cells were then added to irradiated OP9 cells at a concentration of 5×10^5 cells/well and cultured for 14 days in RPMI media+10% FBS supplemented with either 1 ng/mL IL-15 or 10 ng/mL IL-15 with or without 50 ng/mL IL-21.
Cord blood-derived NK cells were analyzed before culture and after 7 and 14 days of culture by fluorescence activated cell sorting (FACS) using the following extracellular and intracellular antibodies: BV785-conjugated anti-CD3 (BioLegend, San Diego, CA), PE-Cy7-conjugated anti-CD56 (BioLegend, San Diego, CA), BV605-conjugated anti-CD57 (BioLegend, San Diego, CA), APC-conjugated SYK (eBioscience, San Diego, CA), and PE-conjugated anti-PLZF (BD Biosciences, San Jose, CA).
Transcriptional silencing of the transcription factor promyelocytic leukemia zinc finger (PLZF) is a hallmark of adaptive NK cells that expand in response to CMV infection (Schlums et al. Immunity. 2015; 42(3):443-456). Intracellular staining for PLZF was performed in NK cells from freshly isolated mononuclear cells and from cells that were cultured for 14 days in vitro. Freshly isolated CD56^dimSYK^− NK cells from cord blood were predominantly PLZF-positive (99.3%±0.10). […] Therefore, IL-21 drives down PLZF expression in CD56^dimSYK^− NK cells, causing these cells to acquire adaptive characteristics (FIG. 6).

[2] = system: NK cells from CMV seropositive donors; assay: Culture of CD3/CD19-depleted PBMCs with IL-15; FACS for CD45RA/CD45RO; conditions: autologous monocytes, 10 ng/mL IL-15, 7 days
Experimental: CD3/CD19-depleted peripheral blood mononuclear cells from typed healthy CMV seronegative and seropositive donors were cultured with 10 ng/mL IL-15. After 7 days, cells were harvested and analyzed by FACS. Shown are representative phenotypes from one CMV seropositive and one CMV seronegative donor both before and after culture (top). Cumulative data showing the percentages of CD3^−CD56^+CD45RA^−CD45RO^+ NK cells from five CMV seronegative and eight CMV seropositive donors pre- and post-culture are shown (bottom). Data are representative of two independent experiments. Paired student's t-tests were used to determine statistical significance within groups, and unpaired student's t-tests were used to determine statistical significance between groups (CMV seropositive and CMV seronegative). *p≤0.05, **p≤0.01, ***p≤0.001.
CD3/CD19-depleted peripheral blood mononuclear cells from typed healthy CMV seronegative and seropositive donors were cultured with 10 ng/mL IL-15. Percentages of CD3^−CD56^+CD45RA^−CD45RO^+ NK cells from CMV seronegative and CMV seropositive donors pre- and post-culture were measured using FACS.

IL-15: cytokine in culture medium, low-dose 1 ng/mL or high-dose 10 ng/mL
TIGIT expression on purified NK cells (TIGIT): slighted upregulated | decrease in PLZF expression (percentage of PLZF-negative NK cells) ([1]; CD56^dimCD57^−SYK^+ NK cells): 9.93%±0.75 | decrease in PLZF expression (percentage of PLZF-negative NK cells) ([1]; CD56^dimCD57^−SYK^− NK cells): 7.05%±1.31 | CD45RA/CD45RO phenotype of NK cells [2]: skew towards a CD45RA^−CD45RO^+ phenotype
